target: T1, chimeric human H3 receptor (Homo sapiens, UniProt Q9Y5N1); test: Chimeric human H3 receptor screening GTP binding assay (inhibition of histamine-stimulated GTP-gamma35S binding, Example 8); assay type: biochemical; settings: 1 h; assay of Example 8; symbol "!" in column headed Ki; read-out: percent inhibition of agonist-induced GTP-gammaS binding to H3
T1 construct: rat Galpha-i2 (Gnai2, rat); made in house; host or cells: Sf9 insect cells (baculovirus); P2 membranes
Procedure, shortened: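 Compound tested at 4 μM against 1 μM histamine stimulation; 125 pM GTP-gamma35S binding measured by filtration and scintillation after 60 min at room temperature. Membranes from Sf9 cells expressing chimeric human H3 plus G-protein subunits, in Tris pH 7.4/NaCl/MgCl2/GDP buffer; values are % inhibition after nonspecific subtraction.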

T1 sequence (Q9Y5N1 with tags, fused parts or gaps): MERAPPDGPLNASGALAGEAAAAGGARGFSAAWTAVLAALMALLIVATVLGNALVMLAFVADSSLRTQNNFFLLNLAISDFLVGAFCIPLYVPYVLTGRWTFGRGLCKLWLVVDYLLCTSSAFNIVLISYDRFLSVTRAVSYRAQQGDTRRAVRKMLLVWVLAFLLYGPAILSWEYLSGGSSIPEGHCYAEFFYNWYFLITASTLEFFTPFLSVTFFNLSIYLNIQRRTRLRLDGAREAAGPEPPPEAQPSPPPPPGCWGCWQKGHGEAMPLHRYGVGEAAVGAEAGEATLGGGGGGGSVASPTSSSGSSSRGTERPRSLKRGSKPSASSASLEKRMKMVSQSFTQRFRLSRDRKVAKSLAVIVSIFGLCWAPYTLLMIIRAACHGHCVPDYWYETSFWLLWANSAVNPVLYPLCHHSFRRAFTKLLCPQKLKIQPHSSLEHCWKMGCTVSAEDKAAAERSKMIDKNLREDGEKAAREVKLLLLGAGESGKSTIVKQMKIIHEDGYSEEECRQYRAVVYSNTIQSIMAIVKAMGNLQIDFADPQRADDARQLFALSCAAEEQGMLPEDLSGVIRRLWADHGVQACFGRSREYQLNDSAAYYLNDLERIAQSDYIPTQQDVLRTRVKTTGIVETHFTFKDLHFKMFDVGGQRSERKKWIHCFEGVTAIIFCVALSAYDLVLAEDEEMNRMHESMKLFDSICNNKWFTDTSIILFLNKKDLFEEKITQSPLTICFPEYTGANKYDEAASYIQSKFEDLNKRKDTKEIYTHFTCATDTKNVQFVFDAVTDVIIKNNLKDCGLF

Structure (SMILES) | inhibition at 4 µM [%]
O=C(c1ccno1)N1CCc2cnc(N3CCN(C4CCC4)CC3)nc2CC1 [Compound 200, 2-(4-cyclobutylpiperazin-1-yl)-7-(isoxazol-5-ylcarbonyl)-6,7,8,9-tetrahydro-5H-pyrimido[4,5-d]azepine] | ≥ 90
Cc1noc(C)c1C(=O)N1CCc2cnc(N3CCN(C4CCC4)CC3)nc2CC1 [Compound 201, 2-(4-cyclobutylpiperazin-1-yl)-7-[(3,5-dimethylisoxazol-4-yl)carbonyl]-6,7,8,9-tetrahydro-5H-pyrimido[4,5-d]azepine] | ≥ 90
Cc1ncccc1C(=O)N1CCc2cnc(N3CCN(C4CCC4)CC3)nc2CC1 [Compound 202, 2-(4-cyclobutylpiperazin-1-yl)-7-[(2-methylpyridin-3-yl)carbonyl]-6,7,8,9-tetrahydro-5H-pyrimido[4,5-d]azepine] | ≥ 90
Cc1cc(C(=O)N2CCc3cnc(N4CCN(C5CCC5)CC4)nc3CC2)nn1C [Compound 203, 2-(4-cyclobutylpiperazin-1-yl)-7-[(1,5-dimethyl-1H-pyrazol-3-yl)carbonyl]-6,7,8,9-tetrahydro-5H-pyrimido[4,5-d]azepine] | ≥ 90
CCn1nc(C)cc1C(=O)N1CCc2cnc(N3CCN(C4CCC4)CC3)nc2CC1 [Compound 204, 2-(4-cyclobutylpiperazin-1-yl)-7-[(1-ethyl-3-methyl-1H-pyrazol-5-yl)carbonyl]-6,7,8,9-tetrahydro-5H-pyrimido[4,5-d]azepine] | ≥ 90
CC(C)c1ccc(C(=O)N2CCc3cnc(N4CCN(C5CCC5)CC4)nc3CC2)cc1 [Compound 205, 2-(4-cyclobutylpiperazin-1-yl)-7-(4-isopropylbenzoyl)-6,7,8,9-tetrahydro-5H-pyrimido[4,5-d]azepine] | ≥ 90
CCCC(=O)N1CCc2cnc(N3CCN(C4CCC4)CC3)nc2CC1 [Compound 206, 7-butyryl-2-(4-cyclobutylpiperazin-1-yl)-6,7,8,9-tetrahydro-5H-pyrimido[4,5-d]azepine] | ≥ 90
CCCCC(=O)N1CCc2cnc(N3CCN(C4CCC4)CC3)nc2CC1 [Compound 207, 2-(4-cyclobutylpiperazin-1-yl)-7-pentanoyl-6,7,8,9-tetrahydro-5H-pyrimido[4,5-d]azepine] | ≥ 90
CC(C)CC(=O)N1CCc2cnc(N3CCN(C4CCC4)CC3)nc2CC1 [Compound 208, 2-(4-cyclobutylpiperazin-1-yl)-7-(3-methylbutanoyl)-6,7,8,9-tetrahydro-5H-pyrimido[4,5-d]azepine] | ≥ 90
CC(C)CCC(=O)N1CCc2cnc(N3CCN(C4CCC4)CC3)nc2CC1 [Compound 209, 2-(4-cyclobutylpiperazin-1-yl)-7-(4-methylpentanoyl)-6,7,8,9-tetrahydro-5H-pyrimido[4,5-d]azepine] | ≥ 90
O=C(CC1CCCC1)N1CCc2cnc(N3CCN(C4CCC4)CC3)nc2CC1 [Compound 210, 2-(4-cyclobutylpiperazin-1-yl)-7-(cyclopentylacetyl)-6,7,8,9-tetrahydro-5H-pyrimido[4,5-d]azepine] | ≥ 90
O=C(CC1CCCCC1)N1CCc2cnc(N3CCN(C4CCC4)CC3)nc2CC1 [Compound 211, 2-(4-cyclobutylpiperazin-1-yl)-7-(cyclohexylacetyl)-6,7,8,9-tetrahydro-5H-pyrimido[4,5-d]azepine] | ≥ 90
O=C(CCC1CCCC1)N1CCc2cnc(N3CCN(C4CCC4)CC3)nc2CC1 [Compound 212, 2-(4-cyclobutylpiperazin-1-yl)-7-(3-cyclopentylpropanoyl)-6,7,8,9-tetrahydro-5H-pyrimido[4,5-d]azepine] | ≥ 90
O=C(Cc1ccccc1)N1CCc2cnc(N3CCN(C4CCC4)CC3)nc2CC1 [Compound 213, 2-(4-cyclobutylpiperazin-1-yl)-7-(phenylacetyl)-6,7,8,9-tetrahydro-5H-pyrimido[4,5-d]azepine] | ≥ 90
COCCC(=O)N1CCc2cnc(N3CCN(C4CCC4)CC3)nc2CC1 [Compound 214, 2-(4-cyclobutylpiperazin-1-yl)-7-(3-methoxypropanoyl)-6,7,8,9-tetrahydro-5H-pyrimido[4,5-d]azepine] | ≥ 90
O=C(C1CC1)N1CCc2cnc(N3CCN(C4CCC4)CC3)nc2CC1 [Compound 215, 2-(4-cyclobutylpiperazin-1-yl)-7-(cyclopropylcarbonyl)-6,7,8,9-tetrahydro-5H-pyrimido[4,5-d]azepine] | ≥ 90
O=C(C1CCC1)N1CCc2cnc(N3CCN(C4CCC4)CC3)nc2CC1 [Compound 216, 7-(cyclobutylcarbonyl)-2-(4-cyclobutylpiperazin-1-yl)-6,7,8,9-tetrahydro-5H-pyrimido[4,5-d]azepine] | ≥ 90
O=C(C1CCCC1)N1CCc2cnc(N3CCN(C4CCC4)CC3)nc2CC1 [Compound 217, 2-(4-cyclobutylpiperazin-1-yl)-7-(cyclopentylcarbonyl)-6,7,8,9-tetrahydro-5H-pyrimido[4,5-d]azepine] | ≥ 90

Structure (SMILES) | inhibition at 4 µM [%]
O=C(C1CCCCC1)N1CCc2cnc(N3CCN(C4CCC4)CC3)nc2CC1 [Compound 218, 2-(4-cyclobutylpiperazin-1-yl)-7-(cyclohexylcarbonyl)-6,7,8,9-tetrahydro-5H-pyrimido[4,5-d]azepine] | ≥ 90
O=C(C1CCCCCC1)N1CCc2cnc(N3CCN(C4CCC4)CC3)nc2CC1 [Compound 219, 2-(4-cyclobutylpiperazin-1-yl)-7-(cycloheptylcarbonyl)-6,7,8,9-tetrahydro-5H-pyrimido[4,5-d]azepine] | ≥ 90
O=C(C1CCCO1)N1CCc2cnc(N3CCN(C4CCC4)CC3)nc2CC1 (stereo not drawn) [Compound 220, 2-(4-cyclobutylpiperazin-1-yl)-7-(tetrahydrofuran-2-ylcarbonyl)-6,7,8,9-tetrahydro-5H-pyrimido[4,5-d]azepine] | ≥ 90
O=C(C1CCOC1)N1CCc2cnc(N3CCN(C4CCC4)CC3)nc2CC1 (stereo not drawn) [Compound 221, 2-(4-cyclobutylpiperazin-1-yl)-7-(tetrahydrofuran-3-ylcarbonyl)-6,7,8,9-tetrahydro-5H-pyrimido[4,5-d]azepine] | ≥ 90
CC(C)C(=O)N1CCc2cnc(N3CCN(C4CCC4)CC3)nc2CC1 [Compound 222, 2-(4-cyclobutylpiperazin-1-yl)-7-isobutyryl-6,7,8,9-tetrahydro-5H-pyrimido[4,5-d]azepine] | ≥ 90
CCC(C)C(=O)N1CCc2cnc(N3CCN(C4CCC4)CC3)nc2CC1 (stereo not drawn) [Compound 223, 2-(4-cyclobutylpiperazin-1-yl)-7-(2-methylbutanoyl)-6,7,8,9-tetrahydro-5H-pyrimido[4,5-d]azepine] | ≥ 90
CCCC(C)C(=O)N1CCc2cnc(N3CCN(C4CCC4)CC3)nc2CC1 (stereo not drawn) [Compound 224, 2-(4-cyclobutylpiperazin-1-yl)-7-(2-methylpentanoyl)-6,7,8,9-tetrahydro-5H-pyrimido[4,5-d]azepine] | ≥ 90
O=C(/C=C/c1ccccc1)N1CCc2cnc(N3CCN(C4CCC4)CC3)nc2CC1 [Compound 225, 2-(4-cyclobutylpiperazin-1-yl)-7-[(2E)-3-phenylprop-2-enoyl]-6,7,8,9-tetrahydro-5H-pyrimido[4,5-d]azepine] | ≥ 90
COc1ccc(C(=O)N2CCc3cnc(N4CCN(C5CCC5)CC4)nc3CC2)cc1Cl [Compound 226, 7-(3-chloro-4-methoxybenzoyl)-2-(4-cyclobutylpiperazin-1-yl)-6,7,8,9-tetrahydro-5H-pyrimido[4,5-d]azepine] | ≥ 90
Cc1ccc(C)c(C(=O)N2CCc3cnc(N4CCN(C5CCC5)CC4)nc3CC2)c1 [Compound 227, 2-(4-cyclobutylpiperazin-1-yl)-7-(2,5-dimethylbenzoyl)-6,7,8,9-tetrahydro-5H-pyrimido[4,5-d]azepine] | ≥ 90
COCCOCC(=O)N1CCc2cnc(N3CCN(C4CCC4)CC3)nc2CC1 [Compound 228, 2-(4-cyclobutylpiperazin-1-yl)-7-[(2-methoxyethoxy)acetyl]-6,7,8,9-tetrahydro-5H-pyrimido[4,5-d]azepine] | ≥ 90
c1ccc(CN2CCc3cnc(N4CCN(C5CCC5)CC4)nc3CC2)cc1 [Compound 229, 7-benzyl-2-(4-cyclobutylpiperazin-1-yl)-6,7,8,9-tetrahydro-5H-pyrimido[4,5-d]azepine] | ≥ 90
Fc1ccccc1CN1CCc2cnc(N3CCN(C4CCC4)CC3)nc2CC1 [Compound 230, 2-(4-cyclobutylpiperazin-1-yl)-7-(2-fluorobenzyl)-6,7,8,9-tetrahydro-5H-pyrimido[4,5-d]azepine] | ≥ 90
Fc1cccc(CN2CCc3cnc(N4CCN(C5CCC5)CC4)nc3CC2)c1 [Compound 231, 2-(4-cyclobutylpiperazin-1-yl)-7-(3-fluorobenzyl)-6,7,8,9-tetrahydro-5H-pyrimido[4,5-d]azepine] | ≥ 90
Fc1ccc(CN2CCc3cnc(N4CCN(C5CCC5)CC4)nc3CC2)cc1 [Compound 232, 2-(4-cyclobutylpiperazin-1-yl)-7-(4-fluorobenzyl)-6,7,8,9-tetrahydro-5H-pyrimido[4,5-d]azepine] | ≥ 90
Cc1cccc(CN2CCc3cnc(N4CCN(C5CCC5)CC4)nc3CC2)c1 [Compound 233, 2-(4-cyclobutylpiperazin-1-yl)-7-(3-methylbenzyl)-6,7,8,9-tetrahydro-5H-pyrimido[4,5-d]azepine] | ≥ 90
Cc1ccc(CN2CCc3cnc(N4CCN(C5CCC5)CC4)nc3CC2)cc1 [Compound 234, 2-(4-cyclobutylpiperazin-1-yl)-7-(4-methylbenzyl)-6,7,8,9-tetrahydro-5H-pyrimido[4,5-d]azepine] | ≥ 90
Cn1ccnc1CN1CCc2cnc(N3CCN(C4CCC4)CC3)nc2CC1 [Compound 235, 2-(4-cyclobutylpiperazin-1-yl)-7-[(1-methyl-1H-imidazol-2-yl)methyl]-6,7,8,9-tetrahydro-5H-pyrimido[4,5-d]azepine] | ≥ 90
